Data from patent publication US10631557B2, “Preservative system for acidic beverages based on sequestrants” (PepsiCo, Inc., priority 2008, dated 2020).
Values joined by “and” are separate entries in the source; they are usually repeats but may differ in a detail not shown here. Identical values can stand only once. Like-named read-outs stand apart in the source and are kept apart here.

Columns and labels:
[1] = tested on: all 7 bio-indicator strains; assay: Inoculated 2% juice beverage pH 3.4, sequestrant and weak acid combinations (Examples 27-29); assay type: cell-based; conditions: for SHMP concentration that prohibits outgrowth of all 7 bio-indicator strains: potassium sorbate 0.015%
Description: (§1) Copper, less than 1 microgram per liter Zinc less than 1 microgram per liter, Nickel, less than 1 microgram per liter and Iron less than 0.1 microgram per liter. The water hardness was/is adjusted to 50 ppm through addition of mixture of CaCl2 and MgCl2.
(§2) The spoilage organisms for the following examples are identified as follows: Y3, Zygosaccharomyces bailii isolate of Pepsi (Strain 906); C-7UP, Brettanomyces isolate of Pepsi, (Cherry 7-UP); Spore, ascospore preparation of Saccharomyces cerevisiae isolate of Pepsi (strain “spore”). Y22, ATCC 60484 Zygosacharomyces bailii; M1, Paecilomyces isolate of Pepsi; Y107 ATCC 52407; M2 ATCC 36614 Byssochlamys nieva. An inoculum of approximately 40 per milliliter was/is employed for each organism. All test samples were/are incubated 16 weeks at 25 C.
(§3) A preparation of beverage was divided into three aliquots; one was supplemented with EDTA (30 ppm) and the remaining two aliquots were supplemented with either 15 or 30 ppm EDDS.
(§4) The beverage aliquots were identical with the exception of the presence or concentration of either EDTA or EDDS. Each aliquot was divided further into smaller volume test samples wherein the concentration of potassium sorbate varies from 0-1500 ppm (0-0.15%). The concentration of EDTA or EDDS is held constant. Under these circumstances, it is possible to establish whether either EDTA or EDDS permitted the use of lowered concentrations of potassium sorbate to preserve a product of pH 3.4. […] The beverage is formulated to contain 50 ppm hardness.
The biodegradable sequestrant ethylene diamine disuccinic acid was admixed with a sodium hexametaphosphate and cinnamic acid in the beverage as shown in the formula for the beverage.
A 2% fruit juice based non-carbonated beverage of pH 3.4 and about 12 Brix was formed by combining the following ingredients.
The biodegradable sequestrant ethylene diamine disuccinic acid was admixed with a bis-phosphonate (Etidronate) wherein the two sequestrants combined to limit the availability of divalent cations to spoilage microorganisms. The beverage was also supplemented with potassium sorbate.
(§5) A 2% fruit juice based non-carbonated beverage of pH 3.4 and about 12Brix was formed by combining the following ingredients.

[2] = Stability against heat or acid induced hydrolysis in beverage; assay type: physicochemical; conditions: thermal processing or ambient aqueous solution
Experimental: The maximum temperature of product in container of 71.3° C. permits the use of standard PET containers as opposed to the environmentally less-sound heat-set PET containers typically employed in hot fill operations. […] A formulation containing SHMP in place of bis-phosphonate will fail because of the degradation of SHMP that occurs during thermal processing.
Furthermore, the problem of pH drift that accompanies the use of SHMP is avoided. Substituting EDDS for EDTA avoids the concerns associated with employing a substance that is not environmentally sound.
Bis-phosphonates, as a substitute for SHMP, allows for the use of thermal processing of beverage in that all bis-phosphonates are stable against heat or acid induced hydrolysis. Such is not the case for polyphosphates such as SHMP. Furthermore, the problem of pH drift that accompanies the use of SHMP at ambient temperatures is avoided. Substituting EDDS for EDTA avoids the concerns associated with employing a substance that is not environmentally sound.

[3] = tested on: Saccharomyces cerevisae; assay: Growth in beverage acidified to pH 3.6 with malic acid (Example 33); assay type: cell-based
[4] = tested on: Strain Y3; assay: Yeast strains spotted on agar-solidified beverage plates containing a weak organic acid (Example 25); assay type: cell-based, Zygossacharomyces bailii; conditions: sodium benzoate 700 or 1000 ppm, potassium sorbate 500 or 800 ppm, cinnamic acid 25-200 ppm
Experimental: A 2 fold concentrate of beverage was prepared and was then mixed with an equal volume of 15% molten agar. Before solidification of the agar, the single strength beverage formulation containing 7.5% molten agar, was then divided into aliquots and to each separate aliquot was added, with the exception of one, sodium benzoate, potassium sorbate or cinnamic acid. The aliquot not receiving either potassium sorbate or cinnamic acid served as a positive control. While the agar was still molten, the agar-beverage aliquots (containing a single weak acid at a specified concentration) were poured into separate Petri plates. In Two agar plates. sodium benzoate was present at either 700 ppm or 1000 ppm) Two agar plates contained potassium sorbate (500 or 800 ppm). Six agar plates contained cinnamic acid ranging in concentrations of 25-200 ppm. Agar solidification essentially provides single strength beverage formulation in a semi-solid state.
The 2 fold concentrate of single strength beverage and the agar supplemented single strength beverage is prepared as follows:
After solidification of juice-agar mixture, various yeast strains (FIG. 2A) were spotted to the gel-surface of each type of mixture employing an identical pattern in each test (FIG. 2B) such that it was possible to identify the outgrowth of specific individual strains. […]

[5] = 25 C; cited from earlier work
[6] = acid pH
Description: Further, at least one regulatory agency in Asia has established an upper limit for the use of potassium sorbate at 50 ppm. If other regulatory agencies follow suite, it will be necessary to broadly apply a complement to potassium sorbate. […] Beverages are generally produced from concentrates and a […] beverage concentrate should contain 1200-1500 ppm potassium sorbate to yield a finished beverage concentration of 240-300 ppm. This often proves problematic during the batching of beverage and it is clear that a final beverage formulation containing 50-150 ppm potassium sorbate would be favored.

[7] = tested on: strain Y3; conditions: potassium sorbate alone
Description: as §1, §2
(§6) A preparation of beverage was divided into multiple small volume aliquots, each aliquot containing a different concentration of potassium sorbate. The range of concentration of potassium sorbate is 0-0.094% (0-940 ppm). Preparations (aliquots) of beverage containing potassium sorbate at each test concentration (48 different values) are inoculated separately with one of 7 different spoilage organisms (bio-indicator) for a total of 336 test samples.
(§7) The 2% fruit juice based non-carbonated beverage of pH 3.4 and about 12 Brix was generated by combining the following ingredients.

[8] = tested on: bio-indicators in the absence of Y3; conditions: potassium sorbate alone, pH 3.4, 16 weeks at 25 C, FIG. 3A
Description: as §1, §2, §6, §7

[9] = tested on: Mold (M1 & M6); conditions: pH 3.4
Description: as §1, §2, §6, §3, §5, §4

In the case of `CC(O)(P(=O)(O)O)P(=O)(O)O` [Etridonate, (1-hydroxyethylidene)bis-phosphonate], the “Etridonate concentration that prevents outgrowth of all seven spoilage organisms” value ([1]; with 30 ppm EDDS (so in the source) and 150 ppm potassium sorbate, pH 3.4, FIG. 6D) is reported as 250 ppm and the “Etridonate concentration that prohibits outgrowth of all seven bio-indicator strains” value ([1]; with 30 ppm EDDS and 150 ppm potassium sorbate, pH 3.4, FIG. 6C) is reported as < 425 ppm and < 450 ppm.
For `O=C(O)CC(NCCNC(CC(=O)O)C(=O)O)C(=O)O` (centres unmarked) [EDDS, ethylenediamine-N,N′-disuccinic acid], the “preservative performance compared with EDTA when combined with a single weak acid preservative” value ([1]; 15 or 30 ppm EDDS vs 30 ppm EDTA, potassium sorbate varied, FIGS. 4A-4C) was “equivalent to EDTA”.
In the case of `O=P1([O-])OP(=O)([O-])OP(=O)([O-])OP(=O)([O-])OP(=O)([O-])OP(=O)([O-])O1.[Na+].[Na+].[Na+].[Na+].[Na+].[Na+]` [SHMP, sodium hexametaphosphate], the “stability against heat or acid induced hydrolysis” value [2] is reported as “degradation”, the “SHMP concentration that prohibits outgrowth of all 7 bio-indicator strains” value ([1]; with 30 ppm EDDS, pH 3.4, FIG. 6A) is reported as 280 ppm and the “SHMP concentration that prohibits outgrowth of all 7 bio-indicator strains” value ([1]; with 30 ppm EDTA, pH 3.4, FIG. 6B) is reported as 250 ppm.
In the case of `NCCCC(O)(P(=O)(O)O)P(=O)(O)O` [Alendronate, alendronate], the “effect on growth rate of Saccharomyces cerevisae” value ([3]; 0.3% concentration, same beverage formulation pH 3.6) is reported as “retards the growth rate”.
For `O=C(O)C=Cc1ccccc1` [Cinnamic acid, cinnamic acid], the “tolerance of strain Y3 to organic acid preservative (outgrowth on plate)” value [4] was “among the most tolerant strains”.
In the case of `O=C(O)CN(CCN(CC(=O)O)CC(=O)O)CC(=O)O` [EDTA, ethylenediamine tetraacetic acid], the “log K for sodium” value [5] is listed as 1.7.
In the case of `C/C=C/C=C/C(=O)[O-].[K+]` [potassium sorbate], the rate of dissolution [6] is reported as “measurably low”, the solubility [6] is reported as “not particularly soluble” and the “concentration of potassium sorbate required to inhibit Y3 or similar strains” value ([7]; pH 3.4, 16 weeks at 25 C, FIG. 3A) is reported as 550-600 ppm. The “range of potassium sorbate concentrations with both growth and growth-free samples of Y3” value ([7]; pH 3.4, FIG. 3A) was 460-660 ppm, the “amount of potassium sorbate required to preserve product in the absence of Y3” value [8] was 220-250 ppm and the “concentration of potassium sorbate required to inhibit mold” value (from here on “concentration … to inhibit mold”) ([9]; combined with EDDS (30 ppm)) was 140-160 ppm. For the same compound, the “concentration … to inhibit mold” value ([9]; combined with EDTA (30 ppm)) was 140-160 ppm and the “concentration … to inhibit mold” value ([9]; potassium sorbate employed alone) was 180-200 ppm.
In the case of `CCCCCN(C)CCC(O)(P(=O)(O)O)P(=O)(O)O` [Ibandronate, ibandronate], the “effect on growth of Saccharomyces cerevisae” value ([3]; about 300 ppm, beverage pH 3.6 with malic acid) is reported as “impair the growth”.
For `O=C([O-])C=Cc1ccccc1.[K+]` [K+cinnamate, Potassium Cinnamate], the “K+cinnamate concentration that prohibits outgrowth of all 7 bio-indicator strains” value ([1]; with 30 ppm EDDS and 750 ppm SHMP, pH 3.4, FIG. 5B) was “no more than 50 ppm” and the “K+cinnamate concentration that prohibits outgrowth of all 7 bio-indicator strains” value ([1]; with 30 ppm EDTA and 750 ppm SHMP, pH 3.4, FIG. 5A) was 75 ppm.
